The results in this text go back to patent US20240059691A1 (KALVISTA PHARMACEUTICALS LIMITED, priority 2020, published 2024).

As usually defined, the IC50 is the concentration that inhibits the measured activity by half. The term half-life denotes how long it takes for the measured level to halve. As usually defined, the bioavailability is dose-corrected exposure relative to a reference, in per cent.

One data set concerns the target Thrombin (Homo sapiens (Human), UniProt P00734). Description: Determination of related protease inhibition: Thrombin (fluorogenic substrate at Km). The class given is biochemical. The note with it: 25° C. In a few lines:
(§1)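 Human protease + fluorogenic substrate (at Km) + test cpd, varied concns; fluorescence kinetic read 5 min, 25 °C. Linear slope → % activity vs uninhibited control; IC50 at 50% inhibition.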

A further data set deals with FXIa (Homo sapiens (Human), UniProt P03951). Description: Determination of related protease inhibition: FXIa (fixed substrate concentration of 100 μM). In kind it is biochemical. As to conditions: 25° C.
The next data set has as its target KLK1 (Homo sapiens (Human), UniProt P06870). Kind of data set: Determination of related protease inhibition: KLK1 (fluorogenic substrate at Km). The class given is biochemical. As to conditions: 25° C. In a few lines:
as §1

The target in a further data set is FXa (Homo sapiens (Human), UniProt P00742). Description: Determination of related protease inhibition: FXa (fluorogenic substrate at Km). The class given is biochemical. As to conditions: 25° C. In a few lines: as §1
The target in the next data set is Trypsin. Kind of data set: Determination of related protease inhibition: Trypsin (fluorogenic substrate at Km). In kind it is biochemical, human. As to conditions: 25° C. Here is the method:
(§2) Determination of Related Protease Inhibition
(§3) In vitro inhibition of related proteases was determined using an ([…] assay based on standard literature methods (see e.g. Shori et al., Biochem. Pharmacol., 1992, 43, 1209; Bouckaert et al., European Journal of Medicinal Chemistry 110 (2016) 181). Human serine protease enzymes Plasma Kallikrein, KLK1, FXa, Plasmin, Thrombin and Trypsin were assayed for enzymatic activity using an appropriate fluorogenic substrate at Km concentration, FXIa at fixed substrate concentration of 100 μM, and various concentrations of the test compound. Protease activity was measured by monitoring the accumulation of liberated fluorescence from the substrate over […]. The linear rate of fluorescence increase per minute was expressed as percentage (%) activity. IC50 values were calculated as the concentration of inhibitor giving 50% inhibition of the uninhibited enzyme activity (100%).

For the next data set, the target named is Plasma Kallikrein (Homo sapiens (Human), UniProt P03952). Description: Determination of related protease inhibition: Plasma Kallikrein (fluorogenic substrate at Km). The class given is biochemical. As to conditions: 25° C., read-out: IC50 (human PKal). In a few lines:
as §1

A further data set deals with Human Factor XIIa (Homo sapiens (Human), UniProt P00748). Description: Determination of FXIIa inhibition (fluorogenic substrate H-DPro-Phe-Arg-AFC, IC50 assay). In kind it is biochemical. As to conditions: substrate H-DPro-Phe-Arg-AFC at Km, 25° C.; class scale A-G. The procedure, abridged: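 Human FXIIa incubated at 25° C with fluorogenic substrate H-DPro-Phe-Arg-AFC at its Km concentration and varying compound concentrations. Fluorescence release monitored over 5 min at 25° C; linear rate expressed as % of uninhibited activity to derive IC50.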

A short description of data set [1]: Pharmacokinetics following a single intravenous dose and a single oral dose in male Sprague-Dawley rats (oral bioavailability, half-life). The note with it: rat, plasma, 10% DMSO/10% Cremophor EL/80% SWFI; for bioavailability: read-out: F % (oral bioavailability). The class given is in vivo. The method, then:
Pharmacokinetic studies of the compounds in Table 16 were performed to assess the pharmacokinetics following a single intravenous dose and a single oral dose in male Sprague-Dawley rats. Two rats were given a single intravenous dose of 1 mL/kg of a nominal 1 mg/mL (1 mg/kg) composition of test compound in 10% DMSO/10% Cremophor EL/80% SWFI vehicle. Example 2191 was dosed at 1 mL/kg of a nominal 2 mg/mL (2 mg/kg) using the same vehicle.
Two rats were given a single oral dose of 5 mL/kg of a nominal 1 mg/mL (5 mg/kg) composition of test compound in 10% DMSO/10% Cremophor EL/80% SWFI vehicle. Example 2191 was dosed at 5 mL/kg of a nominal 2 mg/mL (10 mg/kg) using the same vehicle.
Following intravenous dosing, blood samples were collected over a period of 12 h. Sample times were 2, 5, 15 and 30 min then 1, 2, 4, 6, and 12 h. Following oral dosing, blood samples were collected over a period of 24 h. Sample times were 5, 15 and 30 min then 1, 2, 4, 6, 8, 12 and 24 h.
Following collection, blood samples were centrifuged and the plasma fraction analysed for concentration of test compound by LCMS. Oral bioavailability and half-life calculations from these studies were obtained using Phoenix WinNonlin (v8.0) and are shown below: […]

A further data set addresses Plasmin (Homo sapiens (Human), UniProt P00747). Description: Determination of related protease inhibition: Plasmin (fluorogenic substrate at Km). In kind it is biochemical. As to conditions: 25° C. Here is the method: as §2, §3

Plasma Kallikrein, sequence (P03952 391-638): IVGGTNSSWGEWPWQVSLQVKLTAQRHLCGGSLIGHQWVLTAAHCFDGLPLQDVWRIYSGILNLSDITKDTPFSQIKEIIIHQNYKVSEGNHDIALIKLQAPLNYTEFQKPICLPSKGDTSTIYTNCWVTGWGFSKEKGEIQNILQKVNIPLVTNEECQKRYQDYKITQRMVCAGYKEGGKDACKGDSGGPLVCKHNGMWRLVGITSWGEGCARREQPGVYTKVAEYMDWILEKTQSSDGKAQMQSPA
Plasma Kallikrein, sequence (P03952 20-390 partner): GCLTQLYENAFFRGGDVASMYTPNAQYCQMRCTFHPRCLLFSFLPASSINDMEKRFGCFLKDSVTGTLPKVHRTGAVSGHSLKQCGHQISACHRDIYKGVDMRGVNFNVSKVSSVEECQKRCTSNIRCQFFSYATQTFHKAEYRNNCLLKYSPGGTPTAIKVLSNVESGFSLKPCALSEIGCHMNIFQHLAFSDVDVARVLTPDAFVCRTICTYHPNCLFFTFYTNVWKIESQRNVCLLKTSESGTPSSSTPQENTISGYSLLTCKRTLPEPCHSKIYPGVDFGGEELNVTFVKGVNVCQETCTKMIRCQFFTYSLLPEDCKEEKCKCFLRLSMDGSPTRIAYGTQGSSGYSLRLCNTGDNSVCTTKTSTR
FXIa, sequence (P03951 388-625): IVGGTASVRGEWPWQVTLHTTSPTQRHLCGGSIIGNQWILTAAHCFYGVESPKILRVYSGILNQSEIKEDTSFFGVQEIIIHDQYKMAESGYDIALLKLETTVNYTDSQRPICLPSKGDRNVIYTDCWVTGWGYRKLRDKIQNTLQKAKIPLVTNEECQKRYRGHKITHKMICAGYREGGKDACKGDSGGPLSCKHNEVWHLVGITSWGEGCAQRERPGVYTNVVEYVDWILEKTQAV
FXIa, sequence (P03951 19-387 partner): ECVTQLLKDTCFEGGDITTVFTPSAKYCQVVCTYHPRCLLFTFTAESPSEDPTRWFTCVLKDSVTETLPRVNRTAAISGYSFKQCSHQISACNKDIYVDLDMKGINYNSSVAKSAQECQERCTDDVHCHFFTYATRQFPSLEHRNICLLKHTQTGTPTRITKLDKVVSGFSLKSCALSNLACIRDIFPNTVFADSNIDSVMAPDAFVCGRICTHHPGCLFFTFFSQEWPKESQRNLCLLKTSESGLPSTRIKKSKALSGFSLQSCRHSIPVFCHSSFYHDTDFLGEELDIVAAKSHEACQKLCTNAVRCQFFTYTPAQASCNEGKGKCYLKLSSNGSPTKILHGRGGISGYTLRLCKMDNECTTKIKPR
FXa, sequence (P00742 235-488): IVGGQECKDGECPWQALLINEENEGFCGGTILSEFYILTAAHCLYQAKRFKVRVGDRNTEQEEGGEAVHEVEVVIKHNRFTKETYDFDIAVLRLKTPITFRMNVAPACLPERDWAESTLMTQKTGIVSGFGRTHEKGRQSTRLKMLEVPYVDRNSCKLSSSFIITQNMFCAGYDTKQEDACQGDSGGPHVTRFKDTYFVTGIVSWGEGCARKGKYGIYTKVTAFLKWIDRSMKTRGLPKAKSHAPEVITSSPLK
FXa, sequence (P00742 41-179 partner): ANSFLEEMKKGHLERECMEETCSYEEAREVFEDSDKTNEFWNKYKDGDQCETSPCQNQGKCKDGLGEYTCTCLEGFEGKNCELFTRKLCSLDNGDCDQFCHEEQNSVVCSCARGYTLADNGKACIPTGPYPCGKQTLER
Human Factor XIIa, sequence (P00748 373-615): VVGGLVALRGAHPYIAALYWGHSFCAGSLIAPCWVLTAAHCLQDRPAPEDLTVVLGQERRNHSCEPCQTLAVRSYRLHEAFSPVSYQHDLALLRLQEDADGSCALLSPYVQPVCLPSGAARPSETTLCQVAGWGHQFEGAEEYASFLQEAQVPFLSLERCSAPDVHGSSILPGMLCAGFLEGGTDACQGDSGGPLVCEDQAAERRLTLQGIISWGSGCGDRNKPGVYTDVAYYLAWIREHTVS
Plasmin, sequence (P00747 581-810): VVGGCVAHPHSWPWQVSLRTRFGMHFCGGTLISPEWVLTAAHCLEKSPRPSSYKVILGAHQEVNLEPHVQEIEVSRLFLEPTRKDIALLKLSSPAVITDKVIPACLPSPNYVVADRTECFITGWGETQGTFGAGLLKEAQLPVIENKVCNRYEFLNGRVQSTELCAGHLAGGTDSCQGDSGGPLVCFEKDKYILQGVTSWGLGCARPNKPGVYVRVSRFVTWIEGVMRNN
Plasmin, sequence (P00747 97-580 partner): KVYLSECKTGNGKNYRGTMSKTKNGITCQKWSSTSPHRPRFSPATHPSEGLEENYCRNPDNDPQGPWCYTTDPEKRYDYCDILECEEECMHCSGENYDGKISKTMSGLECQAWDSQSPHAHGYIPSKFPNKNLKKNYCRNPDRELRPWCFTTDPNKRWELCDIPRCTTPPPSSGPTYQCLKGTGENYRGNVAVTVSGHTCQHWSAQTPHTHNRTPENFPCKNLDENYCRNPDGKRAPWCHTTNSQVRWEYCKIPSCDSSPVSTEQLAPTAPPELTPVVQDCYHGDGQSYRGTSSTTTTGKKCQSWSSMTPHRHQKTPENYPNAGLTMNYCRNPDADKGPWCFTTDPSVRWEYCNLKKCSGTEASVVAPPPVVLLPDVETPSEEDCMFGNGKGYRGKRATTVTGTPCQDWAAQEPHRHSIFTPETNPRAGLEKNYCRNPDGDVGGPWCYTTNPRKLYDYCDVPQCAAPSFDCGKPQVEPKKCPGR
KLK1, sequence (P06870 25-262): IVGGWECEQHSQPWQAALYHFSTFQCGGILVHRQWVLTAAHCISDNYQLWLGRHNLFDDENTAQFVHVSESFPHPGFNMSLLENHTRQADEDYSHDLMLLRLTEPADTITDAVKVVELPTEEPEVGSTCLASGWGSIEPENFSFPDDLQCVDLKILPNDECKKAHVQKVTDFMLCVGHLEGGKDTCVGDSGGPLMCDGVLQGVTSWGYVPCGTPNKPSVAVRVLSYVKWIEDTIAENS

With `CN1CCC(COc2cc(CNc3ccc4c(N)ncc(Cl)c4c3)ccn2)CC1` [Example 4268, 4-Chloro-N6-((2-((1-methylpiperidin-4-yl)methoxy)pyridin-4-yl)methyl)isoquinoline-1,6-diamine], the IC50 against Thrombin was more than 40 µM; on FXIa it was more than 40 µM; at KLK1, 1 to 3 µM; against FXa it was 3 to 10 µM; against Trypsin, more than 40 µM; at Plasma Kallikrein, 10 to 40 µM. Also, the IC50 is 0.01 to 0.1 µM against Human Factor XIIa and more than 40 µM on Plasmin. In data set [1], the half-life was 12.4 h. Also, in [1], the bioavailability stood at 3%.

With `Cc1cn2c(n1)CC(COc1cc(CNc3cccc4c(N)nccc34)ccn1)CC2` (single isomer, unassigned) [Example 4446, (S*)-N5-((2-((2-methyl-5,6,7,8-tetrahydroimidazo[1,2-a]pyridin-7-yl)methoxy)pyridin-4-yl)methyl)isoquinoline-1,5-diamine], the IC50 against Thrombin is more than 40 µM; against FXIa, 10 to 40 µM; at KLK1, 3 to 10 µM; against FXa, 3 to 10 µM; against Trypsin, 10 to 40 µM; at Plasma Kallikrein, 3 to 10 µM. In addition, the results for the IC50 on Human Factor XIIa and at Plasmin were 0.01 to 0.1 µM and more than 40 µM, respectively.

For `Nc1ncc(Cl)c2cc(NCc3ccnc(N4CCn5ccnc5C4)c3)ccc12` [Example 4437, 4-chloro-6-N-[(2-{5H,6H,8H-imidazo[1,2-a]pyrazin-7-yl}pyridin-4-yl)methyl]isoquinoline-1,6-diamine], the IC50 was 10 to 40 µM on Thrombin; more than 40 µM on FXIa; 3 to 10 µM against KLK1; 3 to 10 µM on FXa; more than 40 µM on Trypsin; more than 40 µM on Plasma Kallikrein. In addition, the IC50 is 0.1 to 0.3 µM on Human Factor XIIa and more than 40 µM on Plasmin.

Turning to `Nc1ncc(Cl)c2cc(NCc3ccnc(OCC4CCn5ccnc5C4)c3)ccc12` (single isomer, unassigned) [Example 4438, (S*)-4-chloro-N6-((2-((5,6,7,8-tetrahydroimidazo[1,2-a]pyridin-7-yl)methoxy)pyridin-4-yl)methyl)isoquinoline-1,6-diamine], the IC50 is 10 to 40 µM at Thrombin; more than 40 µM against FXIa; 3 to 10 µM at KLK1; 10 to 40 µM against FXa; more than 40 µM at Trypsin; 10 to 40 µM at Plasma Kallikrein. The results for the IC50 at Human Factor XIIa and against Plasmin were 0.1 to 0.3 µM and more than 40 µM, respectively.

For `CN1CCC(COc2cc(CNc3ccc4cnccc4c3)ccn2)CC1` [Example 4262, N-({2-[(1-methylpiperidin-4-yl)methoxy]pyridin-4-yl}methyl)isoquinolin-6-amine], the IC50 is more than 40 µM against Thrombin; more than 40 µM against FXIa; 10 to 40 µM against KLK1; 10 to 40 µM on FXa; more than 40 µM against Trypsin; 10 to 40 µM on Plasma Kallikrein. Also, the IC50 was 3 to 10 µM on Human Factor XIIa and more than 40 µM on Plasmin.

`CN1CCC(COc2cc(CNc3cc4ccnc(N)c4cn3)ccn2)CC1` [Example 4271, 6-N-({2-[(1-methylpiperidin-4-yl)methoxy]pyridin-4-yl}methyl)-2,7-naphthyridine-1,6-diamine]: the IC50 at Thrombin is 10 to 40 µM; against FXIa, more than 40 µM; on KLK1, 10 to 40 µM; against FXa, 0.3 to 1 µM; against Trypsin, more than 40 µM; on Plasma Kallikrein, 10 to 40 µM. For the same molecule, the IC50 on Human Factor XIIa was 1 to 3 µM; against Plasmin it was more than 40 µM.

For `CC(C)N1C[C@@H]2C[C@H]1CN2CCc1ccc(CNc2cccc3c(N)nccc23)c(F)c1` (stereo in doubt) [Example 2212, N5-[[2-fluoro-4-[2-[(1S,4S)-5-isopropyl-2,5-diazabicyclo[2.2.1]heptan-2-yl]ethyl]phenyl]methyl]isoquinoline-1,5-diamine], the concentration for half-maximal inhibition (IC50) against Thrombin was more than 40 µM; on FXIa it was more than 40 µM; against KLK1, 10 to 40 µM; against FXa it was more than 40 µM; on Trypsin it was more than 40 µM; on Plasma Kallikrein, 3 to 10 µM. Also, the results for the IC50 at Human Factor XIIa and against Plasmin were 0.1 to 0.3 µM and more than 40 µM, respectively. This molecule returned a half-life in [1] of 4.34 h. The bioavailability in [1] is 6.8%.

For the molecule `Nc1ncc(F)c2c(NCc3ccnc(OCC4CCn5ccnc5C4)c3)cccc12` (stereo not drawn) [Example 4308, 4-fluoro-5-N-[(2-{5H,6H,7H,8H-imidazo[1,2-a]pyridin-7-ylmethoxy}pyridin-4-yl)methyl]isoquinoline-1,5-diamine], the IC50 on Thrombin was more than 40 µM; at FXIa, more than 40 µM; against KLK1, 10 to 40 µM; at FXa, more than 40 µM; against Trypsin, more than 40 µM; at Plasma Kallikrein, more than 40 µM. Further, the IC50 against Human Factor XIIa is 3 to 10 µM; against Plasmin it was more than 40 µM.

`Nc1nccc2c(NCc3ccc(N4CCn5ccnc5C4)nc3)cccc12` [Example 1128, 5-N-[(6-{5H,6H,8H-imidazo[1,2-a]piperazin-7-yl}pyridin-3-yl)methyl]isoquinoline-1,5-diamine]: the IC50 at Thrombin is 10 to 40 µM; against FXIa it was more than 40 µM; at KLK1, 3 to 10 µM; on FXa, more than 40 µM; at Trypsin it was more than 40 µM; on Plasma Kallikrein it was more than 40 µM. The IC50 was 0.3 to 1 µM against Human Factor XIIa and more than 40 µM at Plasmin.

On to `CN1CCC(CNc2ccc(CNc3ccnc4[nH]ccc34)cn2)CC1` [Example 1197, N-((6-(((1-methylpiperidin-4-yl)methyl)amino)pyridin-3-yl)methyl)-1H-pyrrolo[2,3-b]pyridin-4-amine], for which the 50% inhibitory concentration (IC50) on Thrombin, at FXIa, against KLK1, against FXa, against Trypsin and at Plasma Kallikrein was more than 40 µM throughout. Further, the IC50 was 1 to 3 µM at Human Factor XIIa and more than 40 µM against Plasmin.
